This is an account of results in patent US12059429B2, “Hornerin: a novel non-VEGF mediated angiogenic protein expressed in both human and mouse angiogenic endothelial cells and human pancreatic cancer cells” (University of Virginia Patent Foundation, priority 2018, dated 2024).

The test system of one assay is L3.6pl PDAC cells. Kind of assay: Subcutaneous L3.6pl PDAC xenograft tumor volume. It is filed as in vivo, mouse. On the procedure: A tumor sample size of four was determined by power analysis based on prior tumor xenograft studies. For our 80% power analysis, the difference between means was 200 mm^3, standard deviation was 100 mm^3, and P-value<0.05 (P<0.05). Tumors were measured at least twice weekly until their volume was >1000 mm^3, at which point animals were euthanized. Tumor size data were collected from each tumor, with the exception of one tumor in the combination treatment experiment that was identified with 90% confidence via Grubb's Outlier Test. The following number of mice in each treatment cohort was evaluated for tumor outgrowth: (Scr siRNA/ctrl., N=15; Hrnr siRNA/ctrl., N=14; Scr siRNA/AV-951, N=8; Hrnr siRNA/AV-951, N=8).
For tumor implantation, L3.6pl cells were grown under normal culture conditions for 72 hours prior to being trypsinized and enumerated. The cells were suspended in aliquots of 500,000 cells/50 μL Hanks Balanced Salt Solution (HBSS; Corning, Manassas, VA, USA) and 50 μL of Matrigel (BD Biosciences, San Jose, CA, USA) was added to each aliquot of cells prior to implantation. The cell-Matrigel slurry was injected subcutaneously into nu/nu mice on the flanks or orthotopically into the pancreas (Seaman et al., 2011). The injection site for subcutaneous tumors was monitored daily for growth and tumor volume was calculated form caliper measurements using the formula (width^2×length)/2.
The VEGFR inhibitor AV-951 (Selleck Chemicals, Houston, TX, USA) was suspended in 0.5% methocel+0.5% Tween-20 in HBSS to increase viscosity and 50 μL of 1.0 mg/kg AV-951 or VC solution was administered once daily by oral gavage (22-gauge gavage needle (Kent Scientific, Torrington, CT, USA) connected to a 1 mL syringe). […] To prepare Hrnr siRNA and Silencer Select Negative Control #1 Scr siRNA (Invitrogen; catalog number 4390844) for injection, 10 μg of hornerin or control siRNA were combined with in vivo-jetPEI transfection reagent (Polyplus, France) in solution with 5% glucose per Polyplus instructions (total volume 50 μL). After a 30 minutes incubation, the siRNA solutions were injected slowly into the center of the tumor. A second independent hornerin knockdown experiment was conducted using a pooled set of three unique mouse Hrnr siRNA duplexes (5′-[…]-3′ (SEQ ID NO: 50); 5 ‘-[…]-3’ (SEQ ID NO: 51); 5 ‘-[…]-3’ (SEQ ID NO: 52)) and Scr siRNA (Origene, Rockville, MD, USA). The reagent preparation and injection protocol were similar to that described above.

The next assay relates to tumor vessels. Kind of assay: Tumor vessel parameters in L3.6pl tumor sections (CD34, ACTA2, RAVE analysis). Format: in vivo, mouse. As to conditions: four-group combination experiment, vs control. Here is the method:
Following completion of the treatment schedule, the mice were killed, cardiac perfused, and the tumors were excised and fixed in formalin overnight. The tumors were paraffin embedded and cut into 5 (thin) or 50 μm (thick) sections. Tumor vessel parameters were evaluated in the following number of tumors for each treatment cohort: (Scr siRNA/ctrl., N=10; Hrnr siRNA/ctrl., N=10; Scr siRNA/AV-951, N=4; Hrnr siRNA/AV-951, N=4).
Tumor sections were deparaffinized, rehydrated, heated in antigen retrieval solution (Vector), blocked for 30 minutes in blocking buffer, and incubated with anti-CD34 antibody (Abcam, ab8158, clone MEC14.7; 1:100) in blocking buffer overnight at 4° C. The sections were then incubated with goat anti-rat FITC secondary antibody (Abcam, ab6840; 1:100) in blocking buffer prior to mounting with Prolong Gold Antifade reagent (Invitrogen). Anti-actin, α-smooth muscle Cy3 antibody (Sigma, C6198, clone 1A4; 1:200) was added to the primary antibody solution if assaying for alpha-smooth muscle actin. To compare hornerin expression in vessels and tumor tissue treated with Hrnr siRNA and Scr siRNA, thin paraffin sections were deparaffinized and stained with anti-CD34 and anti-hornerin antibodies described. Images were collected using a Nikon TE 2000-E2 microscope (Nikon Instruments) equipped with a Melles Griot Argon Laser System (Melles Griot, Carlsbad, CA, USA) and a Nikon D-Eclipse C1 confocal attachment and analyzed by Measurement Tool in Image J. To measure the relative hornerin expression in tumor vessels, three vessel segments per image were isolated and their mean intensity and area were measured and recorded. A weighted mean intensity was calculated to correct for differences in selected area. To measure the relative hornerin expression in tumor tissue, the mean intensity from three square sections (75×75 pixel) of tumor tissue per image was measured and recorded.
(§1) Vessel parameters were measured using RAVE software (Seaman et al., 2011). For detection of proliferation and apoptosis, the sections were incubated with the primary antibodies anti-Ki67 (Abcam, ab15580; 1:200) or anti-cleaved caspase 3 (Cell Signaling, 9661; 1:200), respectively, overnight at 4° C. followed by incubation with anti-rabbit AF594 (Abcam, 150080; 1:200).

The subject of the next assay is tumor vascularity. Kind of assay: DCE-MRI and Ktrans measurement of L3.6pl tumors. As to conditions: AV-951 1.0 mg/kg once daily oral gavage; AV-951 only vs control; combination vs AV-951. Format: in vivo, mouse. Here is the method:
To assess the in vivo function of tumor vascularity, DCE-MRI was performed on a 7.0 T Clinscan small animal imaging system (Bruker, Ettlingen, Germany) using a 30 mm inner-diameter birdcage radiofrequency coil. Mice (N=7) were imaged prior to treating tumors with Hrnr and Scr siRNA and again 6 days after treatment. Mice treated with the VEGFR inhibitor AV-951 (N=5) were image pre-siRNA treatment and 6 days posttreatment. Mice were anesthetized with 1.25% isoflurane anesthesia, which was maintained during imaging. Respiration and ECG were monitored during imaging using an MRI-compatible system (SA Instruments, Stony Brook, NY, USA). An indwelling tail vein catheter was established for administration of the gadolinium contrast agent Gd-DTPA, which is required in DCE imaging. Mice were placed supine in the imaging system, and body temperature was maintained at 36° C.±1° C. using circulating, temperature controlled water. Tumors were localized using a spin-echo imaging sequence, and an imaging plane that transected both tumors was chosen for DCE imaging.
A dual-Gd-bolus DCE-MRI acquisition strategy (Christian et al., 2004) was employed, which uses a low dose of contrast agent to accurately acquire the undistorted Gd concentration vs. time curve in the blood pool and a higher dose of contrast agent to acquire the Gd concentration vs. time curve in the tumor with high signal-to-noise ratio, since Gd-DTPA is known to have signal saturation effects at high doses in the blood pool (Christian et al., 2004). […]

The next assay concerns L3.6pl tumors. Kind of assay: Ki67 and cleaved caspase 3 immunofluorescence in tumor sections. Format: in vivo, mouse. As to conditions: day 15 tumor sections. Here is the method:
as §1

Another assay has as its system tumor vasculature. Kind of assay: Photoacoustic microscopy of tumor vasculature. Format: in vivo, mouse. As to conditions: day 12. From the text: Using an established PAM system (Wang & Hu, 2012; Ning et al., 2015a; Ning et al., 2015b), the tumor vasculature was characterized in vivo. Two laser wavelengths, 532 and 559 nm, were used to simultaneously quantify microvascular diameter, oxygen saturation, and blood flow at the same spatial scale (Ning et al., 2015a). The applied optical energies were 100 and 75 nJ, which are below the maximum permissible exposure energy. Throughout the experiment, mice were maintained under anesthesia with 1.5% vaporized isoflurane and the body temperature was kept at 37° C. All experimental procedures were carried out in conformity with the laboratory animal protocol approved by the Animal Care and Use Committee at the University of Virginia.

The subject of a further assay is hornerin. Kind of assay: Immunoblot of hornerin in HUVECs treated with growth factors. It is filed as cell-based, human. The conditions noted are these: 24 hours treatment; growth factors at published B-max concentrations, EGF at increasing concentrations. Here is the method:
HUVECs were cultured in 10 cm dishes for 24 hours prior to a change to media containing VEGF (at B-max concentration), TCM, or VC. After 24 hours treatment, the cells were washed with DPBST two times and lysed with radioimmunoprecipitation assay (RIPA) buffer (Thermo Scientific). Lysate protein concentrations were measured by the bicinchoninic acid assay (Pierce, Waltham, MA, USA) and equivalent amounts of protein were loaded into precast 4-15% tris-glycine eXtended (TGX) polyacrylamide gels (Bio-Rad, Hercules, CA, USA). The proteins were resolved by electrophoresis and transferred to nitrocellulose membranes using the iBlot system (Invitrogen, Carlsbad, CA, USA). The membranes were then washed in Tris-buffered saline+1% Tween-20 (TBST), blocked for 30 minutes in TBST+2% milk solution, and incubated overnight at 4° C. with primary antibodies anti-hornerin (Abcam, Cambridge, UK, ab78909; (1:1000)) and anti-HSP90 (Cell Signaling Technology, Danvers, MA, USA, 4877; (1:1000)). The following day the membranes were washed and subsequently incubated with the secondary antibodies anti-goat HRP (R&D Systems, Minneapolis, MN, USA, HAF109; 1:5000) and anti-rabbit HRP (GE Healthcare, NA934V; 1:5000) for 45 minutes at RT. […]
Major constituents of TCM were determined using a Human Angiogenesis Antibody Array (Affymetrix, Santa Clara, CA, USA) per manufacturer's instructions. […]
In general terms: Immunoblotting shows a protein as a band on a membrane.

For the compound `COc1cc2nccc(Oc3ccc(NC(=O)Nc4cc(C)on4)c(Cl)c3)c2cc1OC` [AV-951, 1-[2-chloro-4-(6,7-dimethoxyquinolin-4-yl)oxyphenyl]-3-(5-methyl-1,2-oxazol-3-yl)urea, reference compound], the “tumor volume decrease compared to control-treated animals” value in the assay with L3.6pl PDAC cells (day 5 post implantation, 1.0 mg/kg AV-951 once daily oral gavage) is 2.3 fold. Also, the “reduction in tumor volume (discussion summary)” value in the assay with L3.6pl PDAC cells (monotherapy or combined therapies) is “two-fold”. Moreover, in the assay on tumor vessels, the “number of vessels per field” value was “fewer vessels were observed” and the vessel morphology entry is “morphologically similar to control vessels”. In addition, the “Ktrans values (in words)” value in the assay on tumor vascularity is “decrease”. Further, in the assay with L3.6pl tumors, the “cleaved caspase 3 levels in tumors relative to control” value is given as “two-fold increase”. For the same compound, in the assay on tumor vasculature, the “tumor blood hemoglobin levels” value is “remained unchanged” and the “tumor blood oxygen saturation compared to control” value is 1.5 fold.

As to “bFGF: growth factor found in TCM, added to HUVECs at published B-max concentration”, the “hornerin expression in HUVECs” value in the assay with hornerin was “might stimulate hornerin expression”.
